According to PubChem BioAssay AID256 (DTP/NCI, 2004):
Where “and” joins values, the source holds several entries; their conditions need not be identical. Equal entries are not always repeated. Toxic doses and inconclusive results are not listed. Rule for the calls: active = survival T/C of 150% or more; inactive = T/C below 125% in these data.

Tested on: CD2F1 mice, L1210 leukemia ip, survival T/C
Experiment: NCI In Vivo Anticancer Drug Screen. Data for tumor model L1210 Leukemia (intraperitoneal) in CD2F1 (CDF1) mice
Settings: higher = longer survival
Summary of the method: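 Mice carrying a transplanted tumor received test compound or vehicle alone. The value is the measurement in the treated group divided by that in the vehicle-treated control group.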

Measured: T/C

[O-][n+]1ccnc2c1cnn2C1OC(CO)C(O)C1O (centres undefined)
inactive: endpoint: mean survival time, dose: 12.5 mg/kg/injection, schedule: Q04DX003 (ip), vehicle: water 104 % of control | endpoint: mean survival time, dose: 25.0 mg/kg/injection, schedule: Q04DX003 (ip), vehicle: water 104 % of control | endpoint: mean survival time, dose: 50.0 mg/kg/injection, schedule: Q04DX003 (ip), vehicle: water 101 % of control | endpoint: mean survival time, dose: 100.0 mg/kg/injection, schedule: Q04DX003 (ip), vehicle: water 101 % of control | endpoint: mean survival time, dose: 200.0 mg/kg/injection, schedule: Q04DX003 (ip), vehicle: water 101 % of control

Clc1ccc(/C(=C(\Br)c2ccccc2)c2ccccc2)cc1
inactive: endpoint: mean survival time, dose: 100.0 mg/kg/injection, schedule: Q04DX003 (ip), vehicle: saline with Tween-80 102 % of control and 100 % of control | endpoint: mean survival time, dose: 200.0 mg/kg/injection, schedule: Q04DX003 (ip), vehicle: saline with Tween-80 100 % of control and 102 % of control | endpoint: mean survival time, dose: 400.0 mg/kg/injection, schedule: Q04DX003 (ip), vehicle: saline with Tween-80 96 % of control and 94 % of control

CCN(CC)c1cc(C(=O)O)cc(N(CC)CC)n1
inactive: endpoint: median survival time, dose: 6.25 mg/kg/injection, schedule: Q01DX009 (ip), vehicle: other 104 % of control | endpoint: median survival time, dose: 12.5 mg/kg/injection, schedule: Q01DX009 (ip), vehicle: other 107 % of control | endpoint: median survival time, dose: 50.0 mg/kg/injection, schedule: Q01DX005 (ip), vehicle: acid diluted with saline 103 % of control | endpoint: median survival time, dose: 50.0 mg/kg/injection, schedule: Q01DX009 (ip), vehicle: other 108 % of control | endpoint: median survival time, dose: 100.0 mg/kg/injection, schedule: Q01DX005 (ip), vehicle: acid diluted with saline 94 % of control | endpoint: median survival time, dose: 100.0 mg/kg/injection, schedule: Q01DX009 (ip), vehicle: other 121 % of control

OCC1OC(n2cnc3c(Cl)nccc32)C(O)C1O (centres undefined)
inactive: endpoint: median survival time, dose: 9.63 mg/kg/injection, schedule: Q01DX005 (ip), vehicle: saline 100 % of control | endpoint: median survival time, dose: 19.25 mg/kg/injection, schedule: Q01DX005 (ip), vehicle: saline 104 % of control | endpoint: median survival time, dose: 38.5 mg/kg/injection, schedule: Q01DX005 (ip), vehicle: saline 94 % of control | endpoint: median survival time, dose: 77.0 mg/kg/injection, schedule: Q01DX005 (ip), vehicle: saline 108 % of control | endpoint: median survival time, dose: 154.0 mg/kg/injection, schedule: Q01DX005 (ip), vehicle: saline 101 % of control

N#CCN(CC#N)CC#N
inactive: endpoint: mean survival time, dose: 1.56 mg/kg/injection, schedule: Q01DX009 (ip), vehicle: saline 97 % of control | endpoint: mean survival time, dose: 3.13 mg/kg/injection, schedule: Q01DX009 (ip), vehicle: saline 92 % of control | endpoint: mean survival time, dose: 6.25 mg/kg/injection, schedule: Q01DX009 (ip), vehicle: saline 100 % of control

CC(=O)[O][Hg][c]1c(C)c(C)[c]([Hg][O]C(C)=O)c(C)c1C
inactive: endpoint: mean survival time, dose: 25.0 mg/kg/injection, schedule: Q04DX002 (ip), vehicle: saline with Tween-80 87 % of control | endpoint: mean survival time, dose: 50.0 mg/kg/injection, schedule: Q04DX002 (ip), vehicle: saline with Tween-80 87 % of control
